Among the data in paper PMC9574050, “Design, synthesis, and insecticidal activity of a novel series of flupyrimin analogs bearing 1-aryl-1H-pyrazol-4-yl subunits” (Frontiers in Chemistry, 2022) are mortality values, retold here.

Like-named read-outs stand apart in the source and are kept apart here. Bounds are passed on as bounds.

Holding throughout (type): in vivo
For one assay, the system named is Aphis craccivora. Briefly: Insecticidal activity against Aphis craccivora (Potter spray tower). The settings on record: read-out: Mortality rate (%) A. craccivora. The protocol: (§1) Preparation of test agent. Dissolve accurately weighed tested compound in DMF to prepare 1% mother liquor, and then dilute it with distilled water containing 0.1% Tween-80 to corresponding concentrations for later use.
Insecticidal activity against Aphis craccivora ([Liu et al., 2022]). About 30 nymphs of alfalfa aphid were placed on a horsebean leaf dish, and then 2.5 ml of the tested agent was sprayed with Potter spray tower. After treatment, they were cultured in an observation room at 20–22°C. The result was counted 24 h later, and the no-response insect body when it was lightly touched with tweezers was regarded as dead. Each treatment was repeated three times, and DMF without the tested compound was used as a blank control.
(§2) The insecticidal activities of the test compounds against the abovementioned five insects were calculated by the following formula: P1=(K/N)×100, (1) P2=(Pt−P0)/(1−P0)×100, (2) where P1 is the mortality rate; K is the dead insect number; N is the total number of experimental insects; P2 is the corrected mortality rate; Pt is the mortality rate of treatment; P0 is the mortality rate of CK. If the mortality rate of CK is less than 5%, without the required correction, and if the mortality rate of CK is between 5 and 20%, P2 should be calculated according to formula II.

A further assay has as its system Nilaparvata lugens. The assay is described as follows: Insecticidal activity against Nilaparvata lugens (Potter spray tower). To be noted: 24 h, read-out: Mortality rate (%) N. lugens; for mortality at 100 µg/mL: 100 μg/mL.
Description: as §1
Insecticidal activity against Nilaparvata lugens ([Ghareeb et al., 2021]). The seedlings with two leaves and one heart were placed in a Petri dish with a bottom diameter of 3 cm and covered with white sand. After the 3rd instar nymphae of N. lugens were stunned by CO2, about 15 nymphae were received in each dish, and then 2.5 ml of the tested agent was sprayed with Potter spray tower. The mortality of N. lugens was investigated 1 day after the treatment. Each treatment was repeated three times, and DMF without the tested compound was used as a blank control.
as §2

The subject of another assay is Plutella xylostella. Briefly: Insecticidal activity against Plutella xylostella (soaking method). The settings on record: Plutella xylostella, 48 h, read-out: Mortality rate (%) P. xylostella.
Description: as §1
Insecticidal activity against Plutella xylostella ([Yang et al., 2021]). The soaking method was adopted. After soaking a proper amount of radish leaves for 10 s, it was placed in a plastic Petri dish with filter paper and dried naturally in the shade. Each dish was inoculated with 10 2nd instar P. xylostella larvae and placed in an observation room at 22°C with light (16/8 h). The result was counted 2 days later, and the no-response insect body when it was lightly touched with a brush was regarded as dead. Each treatment was repeated three times, and DMF without the tested compound was used as a blank control.
as §2

The test system of a further assay is Chilo suppressalis. Briefly: Insecticidal activity against Chilo suppressalis (soaking method). The settings on record: 96 h, read-out: Mortality rate (%) C. suppressalis.
Description: as §1
Insecticidal activity against Chilo suppressalis ([Huang et al., 2022]). The soaking method was adopted. The Zizania latifolia slices were soaked in a tested solution for 10 s, then taken out, and placed in a plastic Petri dish with filter paper to naturally dry in the shade. […] The result was counted 4 days later, and the no-response insect body when it was lightly touched with a brush was regarded as dead. Each treatment was repeated three times, and DMF without the tested compound was used as a blank control.
as §2

For another assay, the system named is Helicoverpa armigera. The assay is described as follows: Insecticidal activity against Helicoverpa armigera (soaking method). The settings on record: Helicoverpa armigera, 48 h, read-out: Mortality rate (%) H. armigera.
Description: as §1
Insecticidal activity against Helicoverpa armigera. The soaking method was adopted ([Yang et al., 2022]). After soaking a proper amount of corn leaves for 10 s, they were placed in a plastic Petri dish with filter paper and dried naturally in the shade. Ten larvae of the 2nd instar H. armigera were attached to each dish and placed in an observation room at 26°C with light (16/8 h). The result was counted 2 days later, and the no-response insect body when it was lightly touched with a brush was regarded as dead. Each treatment was repeated 3 times, and DMF without the tested compound was used as a blank control.
as §2

Setting [1] is: 400 μg/mL, 3rd instar nymphae, 1 day after treatment.
Setting [2] is: 25 μg/mL, 2nd instar larvae, counted 2 days later.
Where [3] appears, read: 100 μg/mL, 2nd instar larvae, counted 2 days later.
Setting [4] is: 400 μg/mL, 2nd instar larvae, counted 2 days later.
Where [5] appears, read: 400 μg/mL, 3rd instar larvae, counted 4 days later.
Setting [6] is: 3rd instar nymphae, 1 day after treatment.

As usually defined, the mortality is the percentage killed. As to `O=C(/N=c1\ccccn1Cc1cnn(-c2cccc(F)c2)c1C(F)(F)F)C(F)(F)F` [Compound A3, (E)-2,2,2-trifluoro-N-(1-((1-(3-fluorophenyl)-5-(trifluoromethyl)-1H-pyrazol-4-yl)methyl)pyridin-2(1H)-ylidene)acetamide], the mortality at 400 µg/mL in the assay on Aphis craccivora (400 μg/mL, counted 24 h later) came to 0%; in the assay on Nilaparvata lugens (setting [1]), 0%; in the assay with Plutella xylostella (setting [4]) it was 100%; in the assay on Chilo suppressalis (setting [5]), 0%; in the assay with Helicoverpa armigera (setting [4]), 0%. In addition, the mortality at 25 µg/mL with Plutella xylostella (setting [2]) worked out at 0%. For the same compound, the mortality at 100 µg/mL in the assay with Plutella xylostella (setting [3]) is 86.7%.
As for `O=C(/N=c1\ccccn1Cc1cnn(-c2ccc(F)cc2)c1C(F)F)C(F)(F)F` [Compound A8, (E)-N-(1-((5-(difluoromethyl)-1-(4-fluorophenyl)-1H-pyrazol-4-yl)methyl)pyridin-2(1H)-ylidene)-2,2,2-trifluoroacetamide], the mortality at 400 µg/mL with Aphis craccivora (400 μg/mL, counted 24 h later) was 0%; with Nilaparvata lugens (setting [1]), 0%; with Plutella xylostella (setting [4]), 0%; in the assay on Chilo suppressalis (setting [5]) it was 0%; with Helicoverpa armigera (setting [4]) it was 0%.
As to `Cn1cc(C(=O)/N=c2\ccccn2Cc2cnn(-c3ccccc3Cl)c2C(F)(F)F)c(C(F)F)n1` [Compound D2, (E)-N-(1-((1-(2-chlorophenyl)-5-(trifluoromethyl)-1H-pyrazol-4-yl)methyl)pyridin-2(1H)-ylidene)-3-(difluoromethyl)-1-methyl-1H-pyrazole-4-carboxamide], the mortality at 400 µg/mL in the assay with Aphis craccivora (400 μg/mL, counted 24 h later) amounted to 0%; in the assay with Nilaparvata lugens (setting [1]) it was 0%; in the assay with Plutella xylostella (setting [4]), 43.3%; in the assay on Chilo suppressalis (setting [5]) it was 0%; with Helicoverpa armigera (setting [4]) it was 0%.
As to `O=C(/N=c1\ccccn1Cc1cnn(-c2cccc(F)c2)c1C(F)F)C(F)(F)C(F)(F)F` [Compound C7, (E)-N-(1-((5-(difluoromethyl)-1-(3-fluorophenyl)-1H-pyrazol-4-yl)methyl)pyridin-2(1H)-ylidene)-2,2,3,3,3-pentafluoropropanamide], the mortality at 400 µg/mL with Aphis craccivora (400 μg/mL, counted 24 h later) turned out to be 0%; with Nilaparvata lugens (setting [1]) it was 0%; in the assay on Plutella xylostella (setting [4]), 66.7%; in the assay with Chilo suppressalis (setting [5]), 40%; with Helicoverpa armigera (setting [4]), 0%.
Turning to `Cn1cc(C(=O)/N=c2\ccccn2Cc2cnn(-c3ccc(F)cc3)c2C(F)F)c(C(F)F)n1` [Compound D7, (E)-3-(difluoromethyl)-N-(1-((5-(difluoromethyl)-1-(4-fluorophenyl)-1H-pyrazol-4-yl)methyl)pyridin-2(1H)-ylidene)-1-methyl-1H-pyrazole-4-carboxamide], the mortality at 400 µg/mL with Aphis craccivora (400 μg/mL, counted 24 h later) turned out to be 0%; in the assay on Nilaparvata lugens (setting [1]), 100%; in the assay on Plutella xylostella (setting [4]), 73.3%; in the assay with Chilo suppressalis (setting [5]), 0%; in the assay on Helicoverpa armigera (setting [4]), 0%. In addition, the mortality at 100 µg/mL in the assay with Nilaparvata lugens (setting [6]) was 0%.
For the compound `COCC(=O)/N=c1\ccccn1Cc1cnn(-c2cccc(Cl)c2)c1C(F)F` [Compound B6, (E)-N-(1-((1-(3-chlorophenyl)-5-(difluoromethyl)-1H-pyrazol-4-yl)methyl)pyridin-2(1H)-ylidene)-2-methoxyacetamide], the mortality at 400 µg/mL in the assay with Aphis craccivora (400 μg/mL, counted 24 h later) was 0%; with Nilaparvata lugens (setting [1]), 0%; in the assay with Plutella xylostella (setting [4]), 100%; in the assay on Chilo suppressalis (setting [5]) it was 0%; with Helicoverpa armigera (setting [4]), 0%. Besides, in the assay on Plutella xylostella (setting [2]), the mortality at 25 µg/mL was found to be 0%. In addition, the mortality at 100 µg/mL in the assay on Plutella xylostella (setting [3]) was 83.3%.
For `COCC(=O)/N=c1\ccccn1Cc1cnn(-c2ccccc2Cl)c1C(F)(F)F` [Compound B2, (E)-N-(1-((1-(2-chlorophenyl)-5-(trifluoromethyl)-1H-pyrazol-4-yl)methyl)pyridin-2(1H)-ylidene)-2-methoxyacetamide], the mortality at 400 µg/mL with Aphis craccivora (400 μg/mL, counted 24 h later) is 0%; with Nilaparvata lugens (setting [1]), 0%; in the assay with Plutella xylostella (setting [4]), 100%; in the assay on Chilo suppressalis (setting [5]), 0%; with Helicoverpa armigera (setting [4]), 0%. Moreover, in the assay on Plutella xylostella (setting [2]), the mortality at 25 µg/mL is greater than 70%. Also, in the assay with Plutella xylostella (setting [3]), the mortality at 100 µg/mL worked out at 96.7%.
With `CNC(=O)c1cc(Cl)cc(C)c1NC(=O)c1cc(Br)nn1-c1ncccc1Cl` [CAT, chlorantraniliprole, reference compound], the mortality at 400 µg/mL in the assay with Aphis craccivora (24 h) is 0%; with Nilaparvata lugens it was 0%; with Plutella xylostella, 100%; in the assay on Chilo suppressalis it was 100%; with Helicoverpa armigera it was 100%. For the same compound, in the assay on Plutella xylostella, the mortality at 25 µg/mL is 100%. Further, the mortality at 100 µg/mL in the assay with Plutella xylostella and with Chilo suppressalis was 100% each time.
Take `O=C(/N=c1\ccccn1Cc1cnn(-c2cccc(F)c2)c1C(F)(F)F)C(F)(F)C(F)(F)F` [Compound C3, (E)-2,2,3,3,3-pentafluoro-N-(1-((1-(3-fluorophenyl)-5-(trifluoromethyl)-1H-pyrazol-4-yl)methyl)pyridin-2(1H)-ylidene)propanamide]: the mortality at 400 µg/mL amounted to 0% in the assay with Aphis craccivora (400 μg/mL, counted 24 h later); 0% in the assay on Nilaparvata lugens (setting [1]); 76.7% in the assay with Plutella xylostella (setting [4]); 0% with Chilo suppressalis (setting [5]); 0% with Helicoverpa armigera (setting [4]).
Consider `O=C(/N=c1\ccccn1Cc1cnn(-c2ccccc2)c1C(F)(F)F)C(F)(F)F` [Compound A1, (E)-2,2,2-trifluoro-N-(1-((1-phenyl-5-(trifluoromethyl)-1H-pyrazol-4-yl)methyl)pyridin-2(1H)-ylidene)acetamide], for which the mortality at 400 µg/mL with Aphis craccivora (400 μg/mL, counted 24 h later) was 0%; in the assay on Nilaparvata lugens (setting [1]), 0%; with Plutella xylostella (setting [4]) it was 76.7%; with Chilo suppressalis (setting [5]), 0%; in the assay on Helicoverpa armigera (setting [4]) it was 0%.
As to `O=C(/N=c1\ccccn1Cc1cnn(-c2cccc(Cl)c2)c1C(F)F)C(F)(F)F` [Compound A6, (E)-N-(1-((1-(3-chlorophenyl)-5-(difluoromethyl)-1H-pyrazol-4-yl)methyl)pyridin-2(1H)-ylidene)-2,2,2-trifluoroacetamide], the mortality at 400 µg/mL with Aphis craccivora (400 μg/mL, counted 24 h later) was determined as 0%; in the assay with Nilaparvata lugens (setting [1]), 100%; with Plutella xylostella (setting [4]), 50%; with Chilo suppressalis (setting [5]) it was 0%; in the assay with Helicoverpa armigera (setting [4]), 0%. In addition, the mortality at 100 µg/mL with Nilaparvata lugens (setting [6]) came out at 0%.
With `COCC(=O)/N=c1\ccccn1Cc1cnn(-c2cccc(F)c2)c1C(F)F` [Compound B7, (E)-N-(1-((5-(difluoromethyl)-1-(3-fluorophenyl)-1H-pyrazol-4-yl)methyl)pyridin-2(1H)-ylidene)-2-methoxyacetamide], the mortality at 400 µg/mL in the assay on Aphis craccivora (400 μg/mL, counted 24 h later) stood at 0%; in the assay on Nilaparvata lugens (setting [1]), 0%; in the assay with Plutella xylostella (setting [4]), 66.7%; in the assay with Chilo suppressalis (setting [5]), 0%; in the assay with Helicoverpa armigera (setting [4]) it was 0%.
